Laboratory results published in PubChem BioAssay (NCI).
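Growth conditions: 96-well plates. Treatment: test compound, 48 hours, 5 concentrations. Analysis: linear interpolation between bracketing concentrations; unreached endpoints set to highest concentration. At the TGI there is no net growth.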

Each molecule was assayed on MALME-3M melanoma (assay: growth of human tumour cells (NCI), 48 h).

Structure (SMILES) | TGI [µM]
CC[C@H]1CC(=O)c2c(cc3c(c2O)C(=O)c2ccccc2C3=O)[C@@]1(C#N)C(=O)OC(C)(C)C | 17.8
COc1cc(C(=O)Nc2cccc3ccccc23)c(Br)c(OC)c1OC | > 100
Cn1c(C2CCCc3c2c2ccccc2n3C)cc2ccccc21 (stereo not drawn) | > 318

The molecules below were run on RPMI-8226 leukemia (assay: growth of human tumour cells (NCI), 48 h).

Structure (SMILES) | TGI [µM]
COc1cc(/C=C2\CCC(C)(CN(C)C)C2=O)cc(OC)c1OC (stereo not drawn) | > 72.9
CC(C)(C)OC(=O)C1=C(O)C(C(=O)OC(C)(C)C)C23CCCCC12C(C(=O)OC(C)(C)C)C(O)=C3C(=O)OC(C)(C)C (stereo not drawn) | > 100
CC[C@H]1CC(=O)c2c(cc3c(c2O)C(=O)c2ccccc2C3=O)[C@@]1(C#N)C(=O)OC(C)(C)C | > 100
COc1cc(C(=O)Nc2cccc3ccccc23)c(Br)c(OC)c1OC | > 100

The molecules below were run on SF-539 CNS (assay: growth of human tumour cells (NCI), 48 h).

Structure (SMILES) | TGI [µM]
COc1cc(/C=C2\CCC(C)(CN(C)C)C2=O)cc(OC)c1OC (stereo not drawn) | > 100
CC(C)(C)OC(=O)C1=C(O)C(C(=O)OC(C)(C)C)C23CCCCC12C(C(=O)OC(C)(C)C)C(O)=C3C(=O)OC(C)(C)C (stereo not drawn) | > 100
CC[C@H]1CC(=O)c2c(cc3c(c2O)C(=O)c2ccccc2C3=O)[C@@]1(C#N)C(=O)OC(C)(C)C | 14.3
COc1cc(C(=O)Nc2cccc3ccccc23)c(Br)c(OC)c1OC | > 100
Cn1c(C2CCCc3c2c2ccccc2n3C)cc2ccccc21 (stereo not drawn) | > 318

The molecules below were run on UO-31 renal (assay: growth of human tumour cells (NCI), 48 h).

Structure (SMILES) | TGI [µM]
COc1cc(/C=C2\CCC(C)(CN(C)C)C2=O)cc(OC)c1OC (stereo not drawn) | > 100
CC(C)(C)OC(=O)C1=C(O)C(C(=O)OC(C)(C)C)C23CCCCC12C(C(=O)OC(C)(C)C)C(O)=C3C(=O)OC(C)(C)C (stereo not drawn) | > 100
CC[C@H]1CC(=O)c2c(cc3c(c2O)C(=O)c2ccccc2C3=O)[C@@]1(C#N)C(=O)OC(C)(C)C | 8.6
COc1cc(C(=O)Nc2cccc3ccccc23)c(Br)c(OC)c1OC | 86.1

The molecules below were run on UACC-257 melanoma (assay: growth of human tumour cells (NCI), 48 h).

Structure (SMILES) | TGI [µM]
COc1cc(/C=C2\CCC(C)(CN(C)C)C2=O)cc(OC)c1OC (stereo not drawn) | > 100
CC(C)(C)OC(=O)C1=C(O)C(C(=O)OC(C)(C)C)C23CCCCC12C(C(=O)OC(C)(C)C)C(O)=C3C(=O)OC(C)(C)C (stereo not drawn) | > 100
CC[C@H]1CC(=O)c2c(cc3c(c2O)C(=O)c2ccccc2C3=O)[C@@]1(C#N)C(=O)OC(C)(C)C | 5.55
COc1cc(C(=O)Nc2cccc3ccccc23)c(Br)c(OC)c1OC | > 100
Cn1c(C2CCCc3c2c2ccccc2n3C)cc2ccccc21 (stereo not drawn) | > 318

What follows are molecules tested on SK-MEL-28 melanoma (assay: growth of human tumour cells (NCI), 48 h).

Structure (SMILES) | TGI [µM]
COc1cc(/C=C2\CCC(C)(CN(C)C)C2=O)cc(OC)c1OC (stereo not drawn) | > 100
CC[C@H]1CC(=O)c2c(cc3c(c2O)C(=O)c2ccccc2C3=O)[C@@]1(C#N)C(=O)OC(C)(C)C | 23
COc1cc(C(=O)Nc2cccc3ccccc23)c(Br)c(OC)c1OC | > 100
Cn1c(C2CCCc3c2c2ccccc2n3C)cc2ccccc21 (stereo not drawn) | > 318

What follows are molecules tested on HOP-62 NSCLC (assay: growth of human tumour cells (NCI), 48 h).

Structure (SMILES) | TGI [µM]
COc1cc(/C=C2\CCC(C)(CN(C)C)C2=O)cc(OC)c1OC (stereo not drawn) | > 100
CC(C)(C)OC(=O)C1=C(O)C(C(=O)OC(C)(C)C)C23CCCCC12C(C(=O)OC(C)(C)C)C(O)=C3C(=O)OC(C)(C)C (stereo not drawn) | > 100
CC[C@H]1CC(=O)c2c(cc3c(c2O)C(=O)c2ccccc2C3=O)[C@@]1(C#N)C(=O)OC(C)(C)C | 5.82
COc1cc(C(=O)Nc2cccc3ccccc23)c(Br)c(OC)c1OC | > 100
Cn1c(C2CCCc3c2c2ccccc2n3C)cc2ccccc21 (stereo not drawn) | > 318

The molecules below were run on RXF-631 renal (assay: growth of human tumour cells (NCI), 48 h).

Structure (SMILES) | TGI [µM]
COc1cc(C(=O)Nc2cccc3ccccc23)c(Br)c(OC)c1OC | > 100
Cn1c(C2CCCc3c2c2ccccc2n3C)cc2ccccc21 (stereo not drawn) | > 318

What follows are molecules tested on SK-MEL-2 melanoma (assay: growth of human tumour cells (NCI), 48 h).

Structure (SMILES) | TGI [µM]
COc1cc(/C=C2\CCC(C)(CN(C)C)C2=O)cc(OC)c1OC (stereo not drawn) | > 100
CC(C)(C)OC(=O)C1=C(O)C(C(=O)OC(C)(C)C)C23CCCCC12C(C(=O)OC(C)(C)C)C(O)=C3C(=O)OC(C)(C)C (stereo not drawn) | > 100
CC[C@H]1CC(=O)c2c(cc3c(c2O)C(=O)c2ccccc2C3=O)[C@@]1(C#N)C(=O)OC(C)(C)C | 5.85
COc1cc(C(=O)Nc2cccc3ccccc23)c(Br)c(OC)c1OC | > 100
Cn1c(C2CCCc3c2c2ccccc2n3C)cc2ccccc21 (stereo not drawn) | > 318

What follows are molecules tested on XF 498 CNS (assay: growth of human tumour cells (NCI), 48 h).

Structure (SMILES) | TGI [µM]
COc1cc(/C=C2\CCC(C)(CN(C)C)C2=O)cc(OC)c1OC (stereo not drawn) | > 100
CC(C)(C)OC(=O)C1=C(O)C(C(=O)OC(C)(C)C)C23CCCCC12C(C(=O)OC(C)(C)C)C(O)=C3C(=O)OC(C)(C)C (stereo not drawn) | > 100
CC[C@H]1CC(=O)c2c(cc3c(c2O)C(=O)c2ccccc2C3=O)[C@@]1(C#N)C(=O)OC(C)(C)C | 7.67

What follows are molecules tested on HOP-18 NSCLC (assay: growth of human tumour cells (NCI), 48 h).

Structure (SMILES) | TGI [µM]
COc1cc(/C=C2\CCC(C)(CN(C)C)C2=O)cc(OC)c1OC (stereo not drawn) | > 100
CC(C)(C)OC(=O)C1=C(O)C(C(=O)OC(C)(C)C)C23CCCCC12C(C(=O)OC(C)(C)C)C(O)=C3C(=O)OC(C)(C)C (stereo not drawn) | > 100
CC[C@H]1CC(=O)c2c(cc3c(c2O)C(=O)c2ccccc2C3=O)[C@@]1(C#N)C(=O)OC(C)(C)C | 14.3
COc1cc(C(=O)Nc2cccc3ccccc23)c(Br)c(OC)c1OC | 19.5
Cn1c(C2CCCc3c2c2ccccc2n3C)cc2ccccc21 (stereo not drawn) | > 318

These molecules were tested on SF-295 CNS (assay: growth of human tumour cells (NCI), 48 h).

Structure (SMILES) | TGI [µM]
COc1cc(/C=C2\CCC(C)(CN(C)C)C2=O)cc(OC)c1OC (stereo not drawn) | > 100
CC(C)(C)OC(=O)C1=C(O)C(C(=O)OC(C)(C)C)C23CCCCC12C(C(=O)OC(C)(C)C)C(O)=C3C(=O)OC(C)(C)C (stereo not drawn) | > 100
CC[C@H]1CC(=O)c2c(cc3c(c2O)C(=O)c2ccccc2C3=O)[C@@]1(C#N)C(=O)OC(C)(C)C | 20.9
COc1cc(C(=O)Nc2cccc3ccccc23)c(Br)c(OC)c1OC | > 100
Cn1c(C2CCCc3c2c2ccccc2n3C)cc2ccccc21 (stereo not drawn) | > 318

Each molecule was assayed on SNB-19 CNS (assay: growth of human tumour cells (NCI), 48 h).

Structure (SMILES) | TGI [µM]
COc1cc(/C=C2\CCC(C)(CN(C)C)C2=O)cc(OC)c1OC (stereo not drawn) | > 100
CC(C)(C)OC(=O)C1=C(O)C(C(=O)OC(C)(C)C)C23CCCCC12C(C(=O)OC(C)(C)C)C(O)=C3C(=O)OC(C)(C)C (stereo not drawn) | > 100
COc1cc(C(=O)Nc2cccc3ccccc23)c(Br)c(OC)c1OC | > 100
Cn1c(C2CCCc3c2c2ccccc2n3C)cc2ccccc21 (stereo not drawn) | > 318

These molecules were tested on SN12C renal (assay: growth of human tumour cells (NCI), 48 h).

Structure (SMILES) | TGI [µM]
COc1cc(/C=C2\CCC(C)(CN(C)C)C2=O)cc(OC)c1OC (stereo not drawn) | > 100
CC(C)(C)OC(=O)C1=C(O)C(C(=O)OC(C)(C)C)C23CCCCC12C(C(=O)OC(C)(C)C)C(O)=C3C(=O)OC(C)(C)C (stereo not drawn) | > 100
CC[C@H]1CC(=O)c2c(cc3c(c2O)C(=O)c2ccccc2C3=O)[C@@]1(C#N)C(=O)OC(C)(C)C | 12.7
COc1cc(C(=O)Nc2cccc3ccccc23)c(Br)c(OC)c1OC | > 100
Cn1c(C2CCCc3c2c2ccccc2n3C)cc2ccccc21 (stereo not drawn) | > 318

Each molecule was assayed on OVCAR-4 ovarian (assay: growth of human tumour cells (NCI), 48 h).

Structure (SMILES) | TGI [µM]
COc1cc(/C=C2\CCC(C)(CN(C)C)C2=O)cc(OC)c1OC (stereo not drawn) | > 100
CC(C)(C)OC(=O)C1=C(O)C(C(=O)OC(C)(C)C)C23CCCCC12C(C(=O)OC(C)(C)C)C(O)=C3C(=O)OC(C)(C)C (stereo not drawn) | > 100
COc1cc(C(=O)Nc2cccc3ccccc23)c(Br)c(OC)c1OC | > 100

The molecules below were run on A549 NSCLC (assay: growth of human tumour cells (NCI), 48 h).

Structure (SMILES) | TGI [µM]
COc1cc(/C=C2\CCC(C)(CN(C)C)C2=O)cc(OC)c1OC (stereo not drawn) | > 100
CC(C)(C)OC(=O)C1=C(O)C(C(=O)OC(C)(C)C)C23CCCCC12C(C(=O)OC(C)(C)C)C(O)=C3C(=O)OC(C)(C)C (stereo not drawn) | > 100
CC[C@H]1CC(=O)c2c(cc3c(c2O)C(=O)c2ccccc2C3=O)[C@@]1(C#N)C(=O)OC(C)(C)C | > 100
COc1cc(C(=O)Nc2cccc3ccccc23)c(Br)c(OC)c1OC | > 100
Cn1c(C2CCCc3c2c2ccccc2n3C)cc2ccccc21 (stereo not drawn) | > 318

What follows are molecules tested on U251 CNS (assay: growth of human tumour cells (NCI), 48 h).

Structure (SMILES) | TGI [µM]
COc1cc(/C=C2\CCC(C)(CN(C)C)C2=O)cc(OC)c1OC (stereo not drawn) | > 100
